EC50 and Ki data for 15 compounds are collected here from patent publication US8263762B2, “Alkoxy-carbonyl-amino-alkynyl-adenosine compounds and derivatives thereof as A2AR agonists” (Dogwood Pharmaceuticals, Inc., priority 2009, dated 2012).

Assay [1] relates to human neutrophils. Nature of the assay: Neutrophil oxidative activity (luminol enhanced chemiluminescence). The format is cell-based. Particulars: oxidative activity assay, purified human neutrophils, fMLP-stimulated chemiluminescence, read-out: Functional Activity. An excerpt:
Chemiluminescence Methods: Luminol enhanced chemiluminescence, a measure of neutrophil oxidative activity, is dependent upon both superoxide production and mobilization of the granule enzyme myeloperoxidase. The light is emitted from unstable high-energy oxygen species such as hypochlorous acid and singlet oxygen generated by activated neutrophils.
Purified human neutrophils (2×10^6/ml) suspended in Hanks balanced salt solution containing 0.1% human serum albumin (HA), adenosine deaminase (1 U/mL) and rolipram (100 nM) were incubated (37 C) in a water bath for 15 min with or without rhTNF (10 U/ml). Following incubation 100 µL aliquots of the PMN were transferred to wells (White walled clear bottom 96 well tissue culture plates Costar #3670; 2 wells/condition) containing […] and luminol (final concentration […]) with or without adenosine agonist (final agonist concentrations 0.01-1000 nM). The plate was incubated 5 min (37 C) and then fMLP (50 l in HA; final concentration […]) was added to all wells.
Peak chemiluminescence was determined with a Victor 1420 Multilabel Counter in the chemiluminescence mode using the Wallac Workstation software. Data are presented as peak chemiluminescence as percent of activity in the absence of an adenosine agonist. The EC50 was determined using PRISM software. All compounds were tested with PMNs from three separate donors.
Effect of A2A Agonists on Neutrophil Oxidative Activity: f-met-leu-phe (fMLP), luminol, superoxide dismutase, cytochrome C, fibrinogen, adenosine deaminase, and trypan blue were obtained from Sigma Chemical. Ficoll-hypaque was purchased from ICN (Aurora, Ohio), and Cardinal Scientific (Santa Fe, N. Mex.) and Accurate Chemicals and Scientific (Westerbury, N.Y.). Endotoxin (lipopolysaccharide; E. coli K235) was from List Biologicals (Campbell, Calif.). Hanks balanced salt solution (HBSS), and limulus amebocyte lysate assay kit were from BioWittaker (Walkersville, Md.). Human serum albumin (HSA) was from Cutter Biological (Elkhart, Ind.). Recombinant human tumor necrosis factor-α was supplied by Dianippon Pharmaceutical Co. Ltd. (Osaka, Japan). ZM241385 (4-(2-[7-amino-2-(2-furyl)[1,2,4]triazolo[2,3-a][1,3,5]triazin-5-yl amino]ethyl)phenol) was a gift from Simon Poucher, Zeneca Pharmaceuticals, Cheshire, UK. Stock solutions (1 mM and 10 mM in DMSO) were made and stored at −20° C.
Human neutrophil preparation: Purified neutrophils (98% neutrophils and >95% viable by trypan blue exclusion) containing <1 platelet per 5 neutrophils and <50 pg/ml endotoxin (limulus amebocyte lysate assay) were obtained from normal heparinized (10 U/ml) venous blood by a one step Ficoll-hypaque separation procedure (A. Ferrante et al., J. Immunol. Meth., 36, 109 (1980)). […]

Assay [2] concerns the target T1, recombinant human A2A receptors (Homo sapiens, UniProt P29274).
T1 construct: made in house; host or cells: Sf9 insect cells, viral (baculovirus) infection; membranes
The assay is described as follows: Radioligand binding assay, A2A receptor. Particulars: recombinant human A2A receptors in Sf9 cell membranes; competition binding. On the procedure:
Cell culture and membrane preparation. Sf9 cells were cultured in Grace's medium supplemented with 10% fetal bovine serum, 2.5 μg/ml amphotericin B and 50 μg/ml gentamycin in an atmosphere of 50% N2/50% O2. Viral infection was performed at a density of 2.5×10^6 cells/mL with a multiplicity of infection of two for each virus used. Infected cells were harvested 3 days post-infection and washed twice in insect PBS (PBS pH 6.3). Cells were then resuspended in lysis buffer (20 mM HEPES pH 7.5, 150 mM NaCl, 3 mM MgCl2, 1 mM β-mercaptoethanol (BME), 5 μg/mL leupeptin, 5 μg/mL pepstatin A, 1 μg/mL aprotinin, and 0.1 mM PMSF) and snap frozen for storage at −80° C. Cells were thawed on ice, brought to 30 mL total volume in lysis buffer, and burst by N2 cavitation (600 psi for 20 minutes). A low-speed centrifugation was performed to remove any unlysed cells (1000×g for 10 minutes), followed by a high-speed centrifugation (17,000×g for 30 minutes). The pellet from the final centrifugation was homogenized in buffer containing 20 mM HEPES pH 8, 100 mM NaCl, 1% glycerol, 2 μg/mL leupeptin, 2 μg/mL pepstatin A, 2 μg/mL Aprotinin, 0.1 mM PMSF, and 10 μM GDP using a small glass homogenizer followed by passage through a 26 gauge needle. Membranes were aliquoted, snap frozen in liquid N2, and stored at −80° C. Membranes from cells stably expressing the human A1 AR(CHO K1 cells) or A3 AR (HEK 293 cells) were prepared as described (Robeva et al., 1996).
Radioligand Binding Assays. Radioligand binding to recombinant human A2A receptors in Sf9 cell membranes was performed using either the radiolabeled agonist, ^125I-APE (Luthin et al., 1995) or the radiolabeled antagonist, ^125I-ZM241385 (^125I-ZM). To detect the high affinity, GTPγS-sensitive state of A1 and A3 AR, we used the agonist, ^125I-ABA (Linden et al., 1985; Linden et al., 1993). Binding experiments were performed in triplicate with 5 μg (A2A) or 25 μg (A1 and A3) membrane protein in a total volume of 0.1 mL HE buffer (20 mM HEPES and 1 mM EDTA) withl U/mL adenosine deaminase and 5 mM MgCl2 with or without 50 μM GTPγS. Membranes were incubated with radioligands at room temperature for three hours (for agonists) or two hours (for antagonists) in Millipore Multiscreen® 96-well GF/C filter plates and assays were terminated by rapid filtration on a cell harvester (Brandel, Gaithersburg, Md.) followed by 4×150 μL washes over 30 seconds with ice cold 10 mM Tris-HCl, pH 7.4, 10 mM MgCl2. Nonspecific binding was measured in the presence of 50 μM NECA. Competition binding assays were performed as described (Robeva et al., 1996) using 0.5-1 nM ^125I-APE, ^125I-ZM241385, or ^125I-ABA. Sometimes it is important to change pipette tips following each serial dilution to prevent transfer on tips of potent hydrophobic compounds. The Ki values for competing compound binding to a single site were derived from IC50 values with correction for radioligand and competing compound depletion as described previously (Linden, 1982). • Linden J (1982) Calculating the Dissociation Constant of an Unlabeled Compound From the Concentration Required to Displace Radiolabel Binding by 50%. J Cycl Nucl Res 8: 163-172. • Linden J, Patel A and Sadek S (1985) [^125I]Aminobenzyladenosine, a New Radioligand With Improved Specific Binding to Adenosine Receptors in Heart. Circ Res 56: 279-284. • Linden J, Taylor H E, Robeva A S, Tucker A L, Stehle J H, Rivkees S A, Fink J S and Reppert S M (1993) Molecular Cloning and Functional Expression of a Sheep A3 Adenosine Receptor with Widespread Tissue Distribution. Mol Pharmacol 44: 524-532. • Luthin D R, Olsson R A, Thompson R D, Sawmiller D R and Linden J (1995) Characterization of Two Affinity States of Adenosine A2A Receptors With a New Radioligand, 2-[2-(4-Amino-3-[^125I]Iodophenyl)Ethylamino] Adenosine. Mol Pharmacol 47: 307-313. • Robeva A S, Woodard R, Luthin D R, Taylor H E and Linden J (1996) Double Tagging Recombinant A1- and A2A-Adenosine Receptors With Hexahistidine and the FLAG Epitope. […]

T1 sequence (P29274 whole entry): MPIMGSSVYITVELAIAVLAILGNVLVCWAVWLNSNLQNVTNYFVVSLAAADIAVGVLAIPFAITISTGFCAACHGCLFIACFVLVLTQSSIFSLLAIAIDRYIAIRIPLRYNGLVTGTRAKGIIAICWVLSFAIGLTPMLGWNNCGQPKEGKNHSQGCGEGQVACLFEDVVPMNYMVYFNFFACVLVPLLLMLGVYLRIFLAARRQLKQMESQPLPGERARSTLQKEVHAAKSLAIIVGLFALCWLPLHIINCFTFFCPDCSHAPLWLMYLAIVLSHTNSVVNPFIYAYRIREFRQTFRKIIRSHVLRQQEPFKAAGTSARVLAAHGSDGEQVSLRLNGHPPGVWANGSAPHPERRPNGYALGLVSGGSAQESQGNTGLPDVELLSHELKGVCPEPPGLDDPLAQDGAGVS

On to `COC(=O)N(C)CC#Cc1nc(N)c2ncn([C@@H]3O[C@H](C(=O)NC4CC4)C(O)C3O)c2n1` (stereo partly drawn) [Example 1, N-Cyclopropyl 2-{3-[methoxycarbonyl(methyl)amino]propyn-1-yl}adenosine-5′-uronamide], for which the EC50 in assay [1] is < 10 nM. Also, the Ki in assay [2] was < 10 nM.

Consider `CN(CC#Cc1nc(N)c2ncn([C@@H]3O[C@H](C(=O)NC4CC4)C(O)C3O)c2n1)C(=O)Oc1ccccc1` (stereo partly drawn) [Example 2, N-Cyclopropyl 2-{3-[phenoxycarbonyl(methyl)amino]propyn-1-yl}adenosine-5′-uronamide], for which the EC50 in assay [1] was < 10 nM. Moreover, the Ki in assay [2] was < 10 nM.

With `CN(CC#Cc1nc(N)c2ncn([C@@H]3O[C@H](C(=O)NC4CC4)C(O)C3O)c2n1)C(=O)OCCOCc1ccccc1` (stereo partly drawn) [Example 3, N-Cyclopropyl 2-{3-[2-((benzyloxy)ethoxycarbonyl)(methyl)amino]propyn-1-yl}adenosine-5′-uronamide], in assay [1], the EC50 is < 10 nM. In addition, the Ki in assay [2] was < 10 nM.

As for `CN(CC#Cc1nc(N)c2ncn([C@@H]3O[C@H](C(=O)NC4CC4)C(O)C3O)c2n1)C(=O)Oc1ccc(F)cc1` (stereo partly drawn) [Example 4, N-Cyclopropyl 2-{3-[4-fluorophenoxycarbonyl(methyl)amino]propyn-1-yl}adenosine-5′-uronamide], the EC50 in assay [1] is < 10 nM. Also, the inhibition constant Ki in assay [2] fell in the range of 11 to 100 nM.

Regarding `CCN(CC#Cc1nc(N)c2ncn([C@@H]3O[C@H](C(=O)NC4CC4)C(O)C3O)c2n1)C(=O)OC` (stereo partly drawn) [Example 6, N-Cyclopropyl 2-{3-[4-(ethyl(methoxycarbonyl)amino)]propyn-1-yl}adenosine-5′-uronamide], the EC50 in assay [1] is < 10 nM. Further, the Ki in assay [2] is < 10 nM.

`CCCN(CC#Cc1nc(N)c2ncn([C@@H]3O[C@H](C(=O)NC4CC4)C(O)C3O)c2n1)C(=O)OC` (stereo partly drawn) [Example 7, N-Cyclopropyl 2-{3-[4-(methoxycarbonyl(propyl)amino)]propyn-1-yl}adenosine-5′-uronamide]: the EC50 in assay [1] is < 10 nM. The Ki in assay [2] is < 10 nM.

For `COC(=O)N(CC#Cc1nc(N)c2ncn([C@@H]3O[C@H](C(=O)NC4CC4)C(O)C3O)c2n1)C(C)C` (stereo partly drawn) [Example 8, N-Cyclopropyl 2-{3-[4-(isopropyl(methoxycarbonyl)amino)]propyn-1-yl}adenosine-5′-uronamide], in assay [1], the EC50 was < 10 nM. Also, the inhibition constant (Ki) in assay [2] is < 10 nM.

For the compound `COC(=O)N(CC#Cc1nc(N)c2ncn([C@@H]3O[C@H](C(=O)NC4CC4)C(O)C3O)c2n1)CC(C)C` (stereo partly drawn) [Example 9, N-Cyclopropyl 2-{3-[4-(isobutyl(methoxycarbonyl)amino)]propyn-1-yl}adenosine-5′-uronamide], the EC50 in assay [1] is < 10 nM. Further, the Ki in assay [2] is < 10 nM.

Regarding `COC(=O)N(CC#Cc1nc(N)c2ncn([C@@H]3O[C@H](C(=O)NC4CC4)C(O)C3O)c2n1)Cc1ccccc1` (stereo partly drawn) [Example 10, N-Cyclopropyl 2-{3-[4-(benzyl(methoxycarbonyl)amino)]propyn-1-yl}adenosine-5′-uronamide], in assay [1], the EC50 is > 100 nM. In addition, in assay [2], the Ki lay within 11 to 100 nM.

Take `COC(=O)N(CC#Cc1nc(N)c2ncn([C@@H]3O[C@H](C(=O)NC4CC4)C(O)C3O)c2n1)C1CC1` (stereo partly drawn) [Example 11, N-Cyclopropyl 2-{3-[4-(cyclopropyl(methoxycarbonyl)amino)]propyn-1-yl}adenosine-5′-uronamide]: the EC50 in assay [1] is < 10 nM. Besides, in assay [2], the Ki was < 10 nM.

On to `COC(=O)N(CC#Cc1nc(N)c2ncn([C@@H]3O[C@H](C(=O)NC4CC4)C(O)C3O)c2n1)CC1CC1` (stereo partly drawn) [Example 12, N-Cyclopropyl 2-{3-[4-(cyclopropylmethyl(methoxycarbonyl)amino)]propyn-1-yl}adenosine-5′-uronamide], for which the EC50 in assay [1] is < 10 nM. Also, in assay [2], the Ki is < 10 nM.

With `COC(=O)N(CC#Cc1nc(N)c2ncn([C@@H]3O[C@H](C(=O)NC4CC4)C(O)C3O)c2n1)C1CCC1` (stereo partly drawn) [Example 13, N-Cyclopropyl 2-{3-[4-(cyclobutyl(methoxycarbonyl)amino)]propyn-1-yl}adenosine-5′-uronamide], the EC50 in assay [1] was < 10 nM. The Ki in assay [2] lay in the range of 11 to 100 nM.

With `COC(=O)N(CC#Cc1nc(N)c2ncn([C@@H]3O[C@H](C(=O)NC4CC4)C(O)C3O)c2n1)C1CCCC1` (stereo partly drawn) [Example 14, N-Cyclopropyl 2-{3-[4-(cyclopentyl(methoxycarbonyl)amino)]propyn-1-yl}adenosine-5′-uronamide], the EC50 in assay [1] was < 10 nM. Besides, the Ki in assay [2] was < 10 nM.

On to `COCCN(CC#Cc1nc(N)c2ncn([C@@H]3O[C@H](C(=O)NC4CC4)C(O)C3O)c2n1)C(=O)OC` (stereo partly drawn) [Example 15, N-Cyclopropyl 2-{3-[4-(methoxycarbonyl(2-methoxyethyl)amino)]propyn-1-yl}adenosine-5′-uronamide], for which, in assay [1], the EC50 was < 10 nM. For the same compound, the Ki in assay [2] was < 10 nM.

In the case of `COCCCN(CC#Cc1nc(N)c2ncn([C@@H]3O[C@H](C(=O)NC4CC4)C(O)C3O)c2n1)C(=O)OC` (stereo partly drawn) [Example 16, N-Cyclopropyl 2-{3-[4-(methoxycarbonyl(3-methoxypropyl)amino)]propyn-1-yl}adenosine-5′-uronamide], the EC50 in assay [1] was < 10 nM. Moreover, the Ki in assay [2] lay within 11 to 100 nM.

A word on the Ki: it is the equilibrium dissociation constant of an inhibitor or competing ligand from its target.
